SMILES strings stand for the structures. Several values for one entry are separate records, joined by “and”; a condition that tells them apart may be missing. Identical values can stand only once. Entries after “also recorded” stand apart in the source; their conditions may differ.

For assay [1], the system named is mixed cortical cell cultures containing neurons and glia. In words: Fe2+-induced free radical neurotoxicity in mixed cortical cell cultures (LDH release). In kind it is cell-based, mouse. The method, then:
(§1) Mouse cortical cell cultures (DIV 11-15) were exposed to 50 μM Fe^2+ or 10 mM BSO, alone or with inclusion of 5 mM Li^+. Neuronal death was analyzed 24 hr later by measuring levels of LDH released into the bathing medium, mean±SEM (n=9-12 culture wells per condition).
Mouse cortical cell cultures (DIV 11-15) were exposed to 30 μM Fe^2+ or 10 mM BSO, alone or in the presence of 1 μM 2-hydroxy TTBA, 10-100 μM vitamin E, or 5 mM Li^+.
For mixed neuron-glia culture, mouse cerebral cortices were removed from brains of the 11-15 day-old-fetal mice (E11-15), gently triturated and plated on 24 well plates (2×10^5 cells/plate) precoated with 100 μg/ml poly-D-lysine and 4 pg/ml laminin. Cultures were maintained at 37° C. in a humidified 5% CO2 atmosphere.
After 7-8 days in vitro (DIV 7-8), 10 μM cytosine arabinofuranoside (Ara-C) was included to halt overgrowth of glia. The drug treatment was carried on DIV 11-15 cortical cell culture.
Oxidative stress was induced by exposing mixed cortical cell cultures containing neurons and glia (DIV 11-15) to 50 μM FeCl2, a hydroxyl radical-producing transition metal via a Fenton reaction, or 10 mM DL-buthionine-[S,R]-sulfoximine (BSO), a glutathione depleting agent.
On the technique in general: LDH in the medium is a marker of cell lysis.

The test system is the same in assay [2]. The assay is described as follows: BSO-induced free radical neurotoxicity in mixed cortical cell cultures (LDH release). The format is cell-based, mouse. The protocol: Mouse cortical cell cultures (DIV 11-15) were exposed to 10 mM BSO, alone or with indicated doses of 2-Hydroxy-TTBA or 2-Hydroxy-TPEA. Neuronal death was analyzed 24 hr later by measuring levels of LDH released into the bathing medium, mean±SEM (n=9-12 culture wells per condition). *, Significant difference from BSO alone, p<0.05 using ANOVA and Student-Newman-Keuls test.
as §1
Mouse cortical cell cultures (DIV 11-15) were exposed to 30 μM Fe^2+ or 10 mM BSO, alone or in the presence of 1 μM 2-hydroxy TTBA, 10-100 μM vitamin E, or 5 mM Li^+. Neuronal death was analyzed 24 h later by measuring LDH efflux in the bathing media (mean±SEM, n=12). *, Significant difference from the relevant control (Fe^2+ or BSO alone), p<0.05 using ANOVA and Student-Newman-Keuls test.
For mixed neuron-glia culture, mouse cerebral cortices were removed from brains of the 11-15 day-old-fetal mice (E11-15), gently triturated and plated on 24 well plates (2×10^5 cells/plate) precoated with 100 μg/ml poly-D-lysine and 4 pg/ml laminin. Cultures were maintained at 37° C. in a humidified 5% CO2 atmosphere. Plating media consist of Eagles minimal essential media (MEM, Earles salts, supplied glutamine-free) supplemented with 5% horse serum, 5% fetal bovine serum, 26.5 mM bicarbonate, 2 mM glutamine, and 21 mM glucose.
After 7-8 days in vitro (DIV 7-8), 10 μM cytosine arabinofuranoside (Ara-C) was included to halt overgrowth of glia. The drug treatment was carried on DIV 11-15 cortical cell culture. Overall neuronal cell injury was assessed by measuring amount of lactate dehydrogenase (LDH) released into the bathing medium 24 hr after neurotoxic insults as previously described (Koh and Choi, J Neurosci Methods 20:83-90, 1987).
Oxidative stress was induced by exposing mixed cortical cell cultures containing neurons and glia (DIV 11-15) to 50 μM FeCl2, a hydroxyl radical-producing transition metal via a Fenton reaction, or 10 mM DL-buthionine-[S,R]-sulfoximine (BSO), a glutathione depleting agent. Widespread neuronal death was observed 24 hours later. […] Administration of vitamin E prevented Fe^2+-induced free radical neurotoxicity at higher doses. This implies that 2-Hydroxy-TTBA or 2-Hydroxy-TPEA is a potent neuroprotectant against oxidative stress.

The subject of assay [3] is cortical cell cultures containing neurons and glia. In words: cyclosporine A or calyculin A-induced neuronal cell apoptosis in cortical cell cultures. In kind it is cell-based, mouse. Conditions: 20 μM cyclosporine A or 10 nM calyculin A, 24 hr; Li^+ at doses of 3-30 mM. The method, then:
Mouse cortical cell cultures (DIV 10-12) were exposed to 20 μM cyclosporine A or 10 nM calculin A, alone or with inclusion of 0.3-30 mM Li. Neuronal death was analyzed 24-28 hr later by measuring levels of LDH released into the bathing medium, mean±SEM (n=9-12 culture wells per condition).
Mouse cortical cell cultures (DIV 10-12) were exposed to 20 μM cyclosporine A, alone or with 100 μM Vitamin E, 1 μM 2-hydroxy-TTBA, or 1 μM 2-hydroxy-TPEA. Neuronal death was analyzed 24 hr later by measuring levels of LDH released into the bathing medium, mean±SEM (n=9-12 culture wells per condition).
Cortical cell cultures containing neurons and glia at 10-12 days in vitro (DIV 10-12) were exposed to 20 μM cyclosporine A (CsA) or 10 nM caliculin A (cal A). Neurons underwent widespread apoptosis 24 hr later as previously reported (McDonald et al., 1996; Ko et al., 2000). […] This implies that Li^+ and the neuroprotective drugs (vitamin E, trolox, BAS, CBAS, FBAS, TBAS, PBAS, MBAS, NPAA, NPPAA, 2-Hydroxy-TTBA, and 2-Hydroxy-TPEA) selectively prevent neuronal cell apoptosis and free radical-mediated necrosis, respectively.

Assay [4] has as its system neuron-rich cortical cell cultures. The assay is described as follows: serum deprivation-induced neuronal cell apoptosis. In kind it is cell-based, mouse. Conditions: 24 hr; 5 mM Li^+, 100 μM zVADfmk, 1 μM 2-hydroxy TTBA. The method, then:
(§2) (B) Neuron-rich cortical cell cultures (DIV 7) were deprived of serum, alone or with addition of 100 μM zVADfmk, 1 μM 2-hydroxy TTBA, or 5 mM Li^+. Neuronal death was analyzed 24 hr later by counting viable neurons excluding trypan (mean±SEM, n=4). *, Significant difference from the relevant control (serum deprivation alone), p<0.05 using ANOVA and Student-Neuman-Keuls test. (C) Western blot analysis of FADD antibody following immunoprecipitation with Fas antibody in the same samples above.
(§3) Additional experiments were performed to examine if targeting both neuronal cell necrosis and apoptosis would result in synergic neuroprotection in […] transgenic mice. […] Neuronal cell apoptosis was induced by serum deprivation in neuron-rich cortical cell cultures as reported, which was prevented by addition of 5 mM Li^+ as well as zVADfmk, a broad spectrum inhibitor of caspases (FIG. 5B). […] Additional experiments were performed to examine if Li^+ would prevent Fas signaling pathway. […] This implies that 2-Hydroxy-TTBA and Li^+ blocks oxidative neuronal cell necrosis and apoptosis, respectively.

The test system of the next assay is Fas-FADD interaction. In words: Fas-FADD interaction in serum-deprived neuron-rich cultures (immunoprecipitation, Western blot). In kind it is cell-based, mouse. Particulars: deprived of serum for 8 hr. The protocol: as §2, §3
A general note: Immunoblotting shows a protein as a band on a membrane.

For another assay, the system named is G93A transgenic mice. The format is in vivo, mouse. The method, then: Animals were daily fed with 2-hydroxy TTBA (30 mg/kg/d), 0.2% lithium carbonate (200 mg/kg/d, Li), or a combination of both (2-hydroxy TTBA+Li) from 8 weeks of age in diet.
Animals were daily fed with 2-hydroxy TTBA (30 mg/kg/d), 0.2% lithium carbonate (Li), or a combination of both (2-hydroxy TTBA+Li) from 8 weeks of age in diet.
C & D: (C) Bright-field photomicrographs of cresyl violet-stained ventral horn sections from the wild type (a), or G93AA transgenic mice treated with vehicle (b), or with a combination of 2-hydroxy TTBA+Li (c) at 16 weeks of age.

In assay [5] the test system is Fas, FADD, cleaved caspase-8 and caspase-3. In words: Fas pathway in lumbar spinal cord of G93A transgenic mice (Western blot). Particulars: at 12 weeks of age; 2-hydroxy-TTBA 30 mg/kg/d, Li^+ 200 mg/kg/d in the diet.
Description: G93A transgenic mice received oral administration of 2-hydroxy-TTBA (30 mg/kg/d) in the diet from 8 weeks of age.
Assay [6] has as its system APPswe/PS1deltaE9 double transgenic mice. In words: brain Aβ40/Aβ42 levels in APPswe/PS1deltaE9 double transgenic mice (ELISA). Particulars: 25 mg/kg/d chemical 01 or 62.5 mg/kg/day ibuprofen for 14.5 months. The format is in vivo, mouse. The method, then: SDS-soluble/insoluble Aβ40 or Aβ42 levels were analyzed by colorimetric sandwich ELISA kit (BIOSOURCE, Camarillo, Calif.).
(In general: In an ELISA, binding on a coated surface is turned into a signal by an enzyme label.)

Assay [7] shares this test system. In words: Morris water maze in APPswe/PS1deltaE9 double transgenic mice. The format is in vivo, mouse. Particulars: 25 mg/kg/day chemical 01 or 62.5 mg/kg/day ibuprofen for 14.5 months (3~17.5 months). The protocol: After administration of 14.5 months, the cognitive function was analyzed by Morris water maze test like example 10-3-1 (mean±SEM, n=3-5).
(§4) 17.5 month-old APPswe/PS1deltaE9 double transgenic mice were fed chow alone (saline only), or containing 25 mg/kg/day of chemical—01, for […] (3˜17.5 month).
The cognitive function was analyzed by Morris water maze test. Mice ware trained to perform a hidden platform task in the Morris water maze. The latency to find the platform was recorded for each mouse.

The test system is the same in assay [8]. In words: open field activity in APPswe/PS1deltaE9 double transgenic mice. Conditions: 25 mg/kg/day chemical 01 or 62.5 mg/kg/day ibuprofen for 14.5 months (3~17.5 months). In kind it is in vivo, mouse. The protocol: After administration of drug for 14.5 months, Open field activity test was performed to evaluate locomotor activity and exploratory behavior. 4×4 of scale marks were drawn in white acryl box having a size of 60 cm×60 cm×35 cm (width×length×height) to make sixteen squares. Four squares in the center became center zone and twelve squares around the center zone became peripary zone. Mice were laid into transparent acryl tube (diameter: about 3.5 inches) laid at the left corner of the acryl box for 30 seconds. After 30 seconds, acryl tube was removed to make mouse free. Experiment was once performed for each mouse for 5 minutes. The distance traveled in the open field was recorded (mean±SEM, n=3-5).
as §4
Open field activity was used to evaluate locomotor activity and exploratory behavior. The distance traveled in the open field was recorded and performance was analyzed after the testing took place.

Where [9] appears, read: 2-hydroxy TTBA 30 mg/kg/d, 0.2% lithium carbonate, or both, in diet from 8 weeks of age, n=13.

`[Li+]` [Li^+, lithium ion, reference compound]: the “Fe^2+-induced free radical neurotoxicity, effect in words” value in [1] (50 μM Fe^2+, 24 hr, 2-Hydroxy-TTBA or 2-Hydroxy-TPEA at doses as low as 0.3 μM, vitamin E at higher doses, Li^+ 10 mM (legend 5 mM)) was “did not attenuate; also recorded: does not attenuate”. The “Fe^2+-induced neuronal death (oxidative stress), effect in words” value in assay [1] (FIG. 5A: 30 μM Fe^2+, 24 h, 1 μM 2-hydroxy TTBA (submicromolar), 5 mM Li^+) was “not attenuated and not”. Also, in [2] (10 mM BSO, 24 hr, 2-Hydroxy-TTBA or 2-Hydroxy-TPEA at doses as low as 0.3 μM, Li^+ 10 mM (legend 5 mM)), the “BSO-induced free radical neurotoxicity, effect in words” value was “did not attenuate; also recorded: does not attenuate”. Further, the “BSO-induced neuronal death (oxidative stress), effect in words” value in [2] (FIG. 5A: 10 mM BSO, 24 h, 1 μM 2-hydroxy TTBA (submicromolar), 5 mM Li^+) was “not attenuated and not”. Also, the “neuronal cell apoptosis, effect in words” value in [3] is listed as “dose-dependently attenuated”. In addition, the “serum deprivation-induced neuronal cell apoptosis, effect in words” value in assay [4] was “prevented; also recorded: prevents apoptosis”. Moreover, in the assay on Fas-FADD interaction, the “Fas-FADD interaction, effect in words” value is recorded as “blocked”. In the assay with G93A transgenic mice (setting [9]), the “Mortality (survival)” value is 137.2 days and 137.2^a ± 2.20 days; the “Onset from PaGE” value was 113.3 days and 113.3^a ± 2.28 days; the “Onset from Rotarod” value was 114.7 days and 114.7^a ± 2.23 days. Further, the “weight loss, % of the wild type” value in the assay with G93A transgenic mice (G93A mice at 18 weeks of age, oral administration in diet) is 53%. Further, the “extension reflex, motor strength, and coordination” value in the assay with G93A transgenic mice (G93A mice, drug in diet) is recorded as “improved”. Further, in the assay on G93A transgenic mice (at 16 weeks of age), the “degeneration (loss) of ventral motor neurons in lumbar spinal cord” value was 58%. Moreover, in the assay with G93A transgenic mice (from 11 weeks to 18 weeks, in the diet), the “motor performance versus vehicle-treated control” value is given as “better motor performance”. Also, in [5], the “levels of Fas, FADD, cleaved caspase-8 and caspase-3 (Fas pathway) in lumbar spinal cord” value is recorded as “completely blocked”.
With `CC(C)Cc1ccc(C(C)C(=O)O)cc1` (stereo not drawn) [ibuprofen, reference compound], in [6], the “SDS-soluble/insoluble Aβ40 or Aβ42 levels, in words” value is “did not reduce”. For the same molecule, in [7], the “escape latency / cognitive function (Morris water maze)” value is reported as “did not improved cognitive function”. Moreover, in [8], the “open field activity (distance traveled)” value is on record as “non-significant trend”.

The values above are taken from patent US20120301551A1, “COMPOUNDS AND COMPOSITIONS FOR TREATING NEURONAL DEATH OR NEUROLOGICAL DYSFUNCTION” (Neurotech Pharmaceuticals Co., Ltd., priority 2005, published 2012).
